According to patent US20160137639A1, “TRIAZOLE-ISOXAZOLE COMPOUND AND MEDICAL USE THEREOF” (JAPAN TOBACCO INC., priority 2012, published 2016):

Target: T1, human RORγ (Homo sapiens, UniProt P51449)
T1 construct: human, NM_005060.3 and from Ser253 to Lys518; expressed in transfected cells; host or cells: CHO cells (transient co-transfection with pG5-Luc reporter)
T1 sequence (P51449 253-518): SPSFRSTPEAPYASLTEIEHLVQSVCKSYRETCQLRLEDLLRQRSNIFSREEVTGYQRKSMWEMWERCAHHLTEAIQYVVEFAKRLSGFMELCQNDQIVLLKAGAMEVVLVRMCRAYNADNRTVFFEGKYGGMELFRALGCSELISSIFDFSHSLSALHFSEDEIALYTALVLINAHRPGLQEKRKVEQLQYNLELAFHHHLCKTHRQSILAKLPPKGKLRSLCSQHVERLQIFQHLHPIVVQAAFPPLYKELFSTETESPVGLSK
Assay: Luciferase reporter gene assay of inhibitory effect against RORγ transcriptional activity (GAL4-hRORγ plasmid in CHO cells)
Assay type: cell-based
Conditions: read-out: LUC EC50 (μM) hRORg
Method: (§1) In vitro assay of inhibitory effect against RORγ transcriptional activity
(§2) Inhibitory effect of test article on transcriptional activity of RORγ was measured by means of the following luciferase reporter gene assay.
(§3) A cDNA encoding human and mouse RORγ ligand binding domain (LBD) were obtained based on the reported sequences (Genebank accession number and sequence: human, NM_005060.3 and from Ser253 to Lys518; mouse, NM_011281.2 and from Ile251 to Lys516).
(§4) The cDNA of human RORγ or mouse RORγ was inserted into pFA-CMV vector (Strategene), which expresses GAL4-DNA binding domain fusion protein.
(§5) The resulting plasmids are hereinafter referred to as GAL4-hRORγ plasmid and GAL4-mRORγ plasmid, respectively.
(§6) Human or mouse GAL4-RORγ plasmid was transiently co-transfected into Chinese hamster ovary cells (CHO cells) with […] plasmid, a reporter plasmid expressing firefly luciferase depending on GAL4.
(§7) TransIT CHO transfection reagent (Mirus) was used to co-transfect human or mouse GAL4-RORγ plasmid into CHO cells with pG5-Luc plasmid.
(§8) One day before the assay, CHO cells were suspended in HAM F-12 Nutrient medium containing 10 v/v % fetal bovine serum and seeded at 6×10^6 cells per 175 cm^2 cell culture flask.
(§9) Fifty four micro litters of Transit-CHO reagent was added into a 15 ml tube containing 1.16 ml of HAM F-12 Nutrient medium without fetal bovine serum and incubated at room temperature for 10 min.
A total 36 uL plasmid solution containing the GAL4-hRORγ plasmid (400 ng), pG5-Luc plasmid (9000 ng) and pcDNA3 plasmid (8600 ng) were added into the tube and mixed gently.
(§10) The mixture was incubated at room temperature for 10 min.
(§11) Nine micro litters of CHO Mojo Reagent was then added into each tube and mixed gently. The mixture was incubated at room temperature for 10 min.
(§12) The resultant transfection reagent was applied to the cell culture.
(§13) After incubation at 37° C., 5% CO2 for 4 hr, the transfected CHO cells were harvested by a trypsin treatment.
(§14) The collected cells were resuspended in HAM F-12 Nutrient medium supplemented with 10 v/v % fetal bovine serum and plated into a 384-well-white plate at 8,000 cells/50 uL/well.
(§15) The plate was incubated at room temperature for 1 hour and then further incubated at 37° C., 5% CO2 for 3 hours.
(§16) The test articles were dissolved in dimethylsulfoxide (DMSO) to obtain a concentration of 10 mmol/L. The resulting solution was diluted with the medium just before use and added to the cells in the plate to prepare 8 different concentrations of the test article.
(§17) The final concentration of DMSO was 0.1 v/v % After the addition of the test articles, the cells were incubated at 37° C., 5% CO2 for 2 days.
(§18) RORγ transcriptional activity was detected as the intracellular luciferase activity using SteadyLite HTS Reporter Gene Assay System (Perkin Elmer).
(§19) StedyLite Reagent was diluted five-fold into a solution containing 10 mM Tricine, 0.2% w/v BSA, 0.02% v/v Tween-20 to obtain the luciferase substrate solution.
(§20) After the measurement of the cell viability using Resazurin, the culture media in the 384 well-plate were removed. Then the Luc substrate solution was added into each well.
(§21) After the incubation at room temperature for 10 minutes, luminescence of each well was measured by a microplate reader.
(§22) The luciferase activity derived from the luminescence count in the vehicle-control well treated with 0.1% DMSO alone was defined as 100%, and the luciferase activity in the test article was calculated as a percentage (%-of-control) based on the value of the vehicle-control.
(§23) EC50 value of test article was calculated by curve fitting with GraphPad Prism.
(§24) The luminescence counts at the concentration of the test article where the cytotoxicity was observed were excluded from the data analysis.

Structure (SMILES)	EC50 [µM]
Cc1c(Cl)cccc1NC(=O)CCc1nnc(CCC(C)(C)C(=O)O)n1C1CC1 [Example F-226]	> 3
CC(=O)N1C[C@H](C(=O)Nc2ccc(C)cc2C)[C@@H](c2nnc(CCCC(C)C)n2C2CC2)C1 (racemic) [Example F-220]	< 3
Cc1c(Cl)cccc1NC(=O)CCc1nnc(CCC2CCCCC2)n1C1CC1 [Example F-94]	< 3
CCOC(=O)[C@H]1CC[C@H](CCc2nnc(CCC(=O)Nc3cccc(Cl)c3C)n2C2CC2)CC1 [Example F-240]	> 3
CC1(c2cc(-c3onc([C@@H](CCC(=O)O)CC(=O)Nc4ccc(Cl)cc4F)c3C3CC3)no2)CCCC1 [Example E-71]	< 3
CC(=O)N1C[C@H](C(=O)Nc2ccc(C)cc2C)[C@@H](c2nnc([C@H]3C[C@@H](OC(C)C)C3)n2C2CC2)C1 (racemic) [Example F-330]	> 3
CC(=O)N1C[C@H](C(=O)Nc2ccc(C)cc2C)[C@@H](c2nnc(CCCC(C)(C)C)n2C2CC2)C1 [Example F-432]	< 3

Same assay, conditions: read-out: LUC EC50 hRORg

Structure (SMILES)	EC50 [µM]
Cc1ccc(NC(=O)C[C@H](CCCO)c2noc([C@H]3C[C@@H](CC(C)(C)C)C3)c2C2CC2)c(C)c1O [Example F-699]	< 3
CC(C)(C)C[C@H]1C[C@@H](c2onc(CCC(=O)Nc3ccc(Cl)cc3Cl)c2C2CC2)C1 [Example F-720]	< 3
Cc1ccc(NC(=O)[C@H](CC(=O)O)Cc2noc([C@H]3C[C@@H](CC(C)(C)C)C3)c2C2CC2)c(Cl)c1 [Example F-678]	< 3
Cc1ccc(NC(=O)C[C@H](CCCO)c2nnn([C@H]3C[C@@H](CC(C)(C)C(C)C)C3)c2C(F)(F)F)c(F)c1 [Example F-710]	< 3
CC(C)(C)Cc1cc(-c2onc([C@@H](CCC(=O)O)CC(=O)Nc3ccc(Cl)cc3Cl)c2C2CC2)no1 [Example E-78]	< 3
Cc1c(F)ccc(NC(=O)C[C@H](CCO)c2nnc(-c3cc(CC(C)C)on3)n2C2CC2)c1C [Example F-661]	< 3
Cc1ccc(NC(=O)C[C@@H](c2nnc([C@H]3C[C@@H](CC(C)C)C3)n2C2CC2)N(C)C(=O)C(C)C)c(C)c1 [Example F-530]	< 3
Cc1ccc(NC(=O)C[C@H](CCC(=O)O)c2noc([C@H]3C[C@@H](CC(C)(C)C)C3)c2C2CC2)nc1C [Example F-680]	< 3

Target: T2, mouse RORγ (Mus musculus, UniProt P51450)
T2 construct: mouse, NM_011281.2 and from Ile251 to Lys516; expressed in transfected cells; host or cells: CHO cells (transient co-transfection with pG5-Luc reporter)
T2 sequence (P51450 251-516): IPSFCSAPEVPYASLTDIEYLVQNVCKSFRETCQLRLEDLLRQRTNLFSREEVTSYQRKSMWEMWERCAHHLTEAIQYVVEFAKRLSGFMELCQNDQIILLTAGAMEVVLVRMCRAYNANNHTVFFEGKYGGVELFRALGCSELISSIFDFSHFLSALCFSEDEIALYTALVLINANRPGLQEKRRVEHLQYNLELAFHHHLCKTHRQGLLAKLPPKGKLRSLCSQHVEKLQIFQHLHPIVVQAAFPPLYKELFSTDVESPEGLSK
Assay: Luciferase reporter gene assay of inhibitory effect against RORγ transcriptional activity (GAL4-mRORγ plasmid in CHO cells)
Assay type: cell-based
Conditions: read-out: LUC EC50 (μM) mRORg
Method: as §1, §2, §3, §4, §5, §6, §7, §8, §9, §10, §11, §12, §13, §14, §15, §16, §17, §18, §19, §20, §21, §22, §23, §24

Structure (SMILES)	EC50 [µM]
Cc1c(Cl)cccc1NC(=O)CCc1nnc(CCC(C)(C)C(=O)O)n1C1CC1 [Example F-226]	> 3
CC(=O)N1C[C@H](C(=O)Nc2ccc(C)cc2C)[C@@H](c2nnc(CCCC(C)C)n2C2CC2)C1 (racemic) [Example F-220]	< 3
Cc1c(Cl)cccc1NC(=O)CCc1nnc(CCC2CCCCC2)n1C1CC1 [Example F-94]	< 3
CCOC(=O)[C@H]1CC[C@H](CCc2nnc(CCC(=O)Nc3cccc(Cl)c3C)n2C2CC2)CC1 [Example F-240]	< 3
CC1(c2cc(-c3onc([C@@H](CCC(=O)O)CC(=O)Nc4ccc(Cl)cc4F)c3C3CC3)no2)CCCC1 [Example E-71]	< 3
CC(=O)N1C[C@H](C(=O)Nc2ccc(C)cc2C)[C@@H](c2nnc([C@H]3C[C@@H](OC(C)C)C3)n2C2CC2)C1 (racemic) [Example F-330]	> 3
CCn1c(CCC2CCCCC2)nnc1[C@H]1C[C@@H]1C(=O)Nc1cccc2ccccc12 (racemic) [Example F-37]	< 3

Same assay, conditions: read-out: LUC EC50 mRORg

Structure (SMILES)	EC50 [µM]
Cc1ccc(NC(=O)C[C@H](CCCO)c2noc([C@H]3C[C@@H](CC(C)(C)C)C3)c2C2CC2)c(C)c1O [Example F-699]	< 3
CC(C)(C)C[C@H]1C[C@@H](c2onc(CCC(=O)Nc3ccc(Cl)cc3Cl)c2C2CC2)C1 [Example F-720]	< 3
Cc1ccc(NC(=O)C[C@H](CCCO)c2nnn([C@H]3C[C@@H](CC(C)(C)C(C)C)C3)c2C(F)(F)F)c(F)c1 [Example F-710]	< 3
CC(C)(C)Cc1cc(-c2onc([C@@H](CCC(=O)O)CC(=O)Nc3ccc(Cl)cc3Cl)c2C2CC2)no1 [Example E-78]	< 3
Cc1c(F)ccc(NC(=O)C[C@H](CCO)c2nnc(-c3cc(CC(C)C)on3)n2C2CC2)c1C [Example F-661]	< 3
Cc1ccc(NC(=O)C[C@@H](c2nnc([C@H]3C[C@@H](CC(C)C)C3)n2C2CC2)[C@H]2C[C@H](O)C2)c(C)c1 [Example F-523]	< 3
Cc1ccc(NC(=O)C[C@@H](c2nnc([C@H]3C[C@@H](CC(C)C)C3)n2C2CC2)N(C)C(=O)C(C)C)c(C)c1 [Example F-530]	< 3
Cc1ccc(NC(=O)C[C@H](CCC(=O)O)c2noc([C@H]3C[C@@H](CC(C)(C)C)C3)c2C2CC2)nc1C [Example F-680]	< 3
Cc1ccc(NC(=O)C[C@H](c2nnc([C@H]3C[C@@H](CC(C)C)C3)n2C2CC2)[C@H]2C[C@H](O)C2)c(C)c1 [Example F-522]	> 3
Cc1ccc(NC(=O)C[C@@H](c2nnc([C@H]3C[C@@H](CC(C)C)C3)n2C2CC2)[C@H]2C[C@@H](O)C2)c(C)c1 [Example F-515]	< 3
Cc1ccc(NC(=O)C[C@H](c2nnc([C@H]3C[C@@H](CC(C)C)C3)n2C2CC2)[C@H]2C[C@@H](O)C2)c(C)c1 [Example F-514]	> 3
